# Laboratory results as given in ChEMBL document CHEMBL3046171, “Synthesis and biological evaluation of gallic acid analogs” (Med Chem Res, 2013).
# Active and inactive are the calls of the source. No cut-off for these calls is given here.
# Key:
# CHO [1] = assay: Antioxidant activity in Cricetulus griseus CHO (Chinese hamster ovary) cells assessed as proportion of H2O2-induced chromosomal aberrations bearing cells at 200 uM pre-incubated with H202 for 1 hr prior to cell addition by Giemsa staining; assay type: functional
# CHO [2] = assay: Cytotoxicity against Cricetulus griseus CHO (Chinese hamster ovary) cells assessed as proliferative replication index at 100 uM treated for 3 hr by BrdU assay relative to untreated control (reference value: 100%); assay type: cell-based
# CHO [3] = assay: Cytotoxicity against Cricetulus griseus CHO (Chinese hamster ovary) cells assessed as frequency of third generation of mitotic cells at 200 uM treated for 3 hr by BrdU assay (reference value: 0%); assay type: cell-based
# CHO [4] = assay: Cytotoxicity against Cricetulus griseus CHO (Chinese hamster ovary) cells assessed as frequency of second generation of mitotic cells at 1000 uM treated for 3 hr by BrdU assay (reference value: 90%); assay type: cell-based
# CHO [5] = assay: Cytotoxicity against Cricetulus griseus CHO (Chinese hamster ovary) cells assessed as mitotic index at 50 uM treated for 3 hr by Giemsa staining based light microscopic analysis relative to untreated control (reference value: 100%); assay type: cell-based
# CHO [6] = assay: Cytotoxicity against Cricetulus griseus CHO (Chinese hamster ovary) cells assessed as frequency of third generation of mitotic cells at 100 uM treated for 3 hr by BrdU assay (reference value: 0%); assay type: cell-based
# CHO [7] = assay: Cytotoxicity against Cricetulus griseus CHO (Chinese hamster ovary) cells assessed as mitotic index at 500 uM treated for 3 hr by Giemsa staining based light microscopic analysis relative to untreated control (reference value: 100%); assay type: cell-based
# CHO [8] = assay: Genotoxicity in Cricetulus griseus CHO (Chinese hamster ovary) cells assessed as effect on frequencies of sister chromatid exchange bearing cells at <200 uM by fluorescence-plus-Giemsa technique; assay type: toxicity, cell-based
# CHO [9] = assay: Cytotoxicity against Cricetulus griseus CHO (Chinese hamster ovary) cells assessed as mitotic index at 200 uM treated for 3 hr by Giemsa staining based light microscopic analysis relative to untreated control (reference value: 100%); assay type: cell-based
# CHO [10] = assay: Cytotoxicity against Cricetulus griseus CHO (Chinese hamster ovary) cells assessed as frequency of first generation of mitotic cells at 200 uM treated for 3 hr by BrdU assay (reference value: 10%); assay type: cell-based
# CHO [11] = assay: Cytotoxicity against Cricetulus griseus CHO (Chinese hamster ovary) cells assessed as frequency of first generation of mitotic cells at 1000 uM treated for 3 hr by BrdU assay (reference value: 10%); assay type: cell-based
# CHO [12] = assay: Cytotoxicity against Cricetulus griseus CHO (Chinese hamster ovary) cells assessed as frequency of second generation of mitotic cells at 100 uM treated for 3 hr by BrdU assay (reference value: 90%); assay type: cell-based
# CHO [13] = assay: Genotoxicity in Cricetulus griseus CHO (Chinese hamster ovary) cells assessed as effect on frequencies of chromosomal aberrations bearing cells at <200 uM by Giemsa staining; assay type: toxicity, cell-based
# CHO [14] = assay: Cytotoxicity against Cricetulus griseus CHO (Chinese hamster ovary) cells assessed as proliferative replication index at 1000 uM treated for 3 hr by BrdU assay relative to untreated control (reference value: 100%); assay type: cell-based
# CHO [15] = assay: Cytotoxicity against Cricetulus griseus CHO (Chinese hamster ovary) cells assessed as proliferative replication index at 50 uM treated for 3 hr by BrdU assay relative to untreated control (reference value: 100%); assay type: cell-based
# CHO [16] = assay: Cytotoxicity against Cricetulus griseus CHO (Chinese hamster ovary) cells assessed as proliferative replication index at 200 uM treated for 3 hr by BrdU assay relative to untreated control (reference value: 100%); assay type: cell-based
# CHO [17] = assay: Cytotoxicity against Cricetulus griseus CHO (Chinese hamster ovary) cells assessed as frequency of second generation of mitotic cells at 50 uM treated for 3 hr by BrdU assay (reference value: 90%); assay type: cell-based
# CHO [18] = assay: Cytotoxicity against Cricetulus griseus CHO (Chinese hamster ovary) cells assessed as mitotic index at 1000 uM treated for 3 hr by Giemsa staining based light microscopic analysis relative to untreated control (reference value: 100%); assay type: cell-based
# CHO [19] = assay: Cytotoxicity against Cricetulus griseus CHO (Chinese hamster ovary) cells assessed as frequency of third generation of mitotic cells at 50 uM treated for 3 hr by BrdU assay (reference value: 0%); assay type: cell-based
# CHO [20] = assay: Genotoxicity in Cricetulus griseus CHO (Chinese hamster ovary) cells assessed as increase in frequencies of sister chromatid exchange bearing cells at 0.5 to 2 mM by fluorescence-plus-Giemsa technique; assay type: toxicity, cell-based; details: 2000 µM
# CHO [21] = assay: Cytotoxicity against Cricetulus griseus CHO (Chinese hamster ovary) cells assessed as frequency of third generation of mitotic cells at 1000 uM treated for 3 hr by BrdU assay (reference value: 0%); assay type: cell-based
# CHO [22] = assay: Cytotoxicity against Cricetulus griseus CHO (Chinese hamster ovary) cells assessed as frequency of first generation of mitotic cells at 100 uM treated for 3 hr by BrdU assay (reference value: 10%); assay type: cell-based
# CHO [23] = assay: Cytotoxicity against Cricetulus griseus CHO (Chinese hamster ovary) cells assessed as mitotic index at 100 uM treated for 3 hr by Giemsa staining based light microscopic analysis relative to untreated control (reference value: 100%); assay type: cell-based
# CHO [24] = assay: Antioxidant activity in Cricetulus griseus CHO (Chinese hamster ovary) cells assessed as protection against H2O2-induced chromosomal aberrations treated for 15 min prior to H2O2 addition measured after 2 hr by Giemsa staining; assay type: functional, cell-based
# CHO [25] = assay: Genotoxicity in Cricetulus griseus CHO (Chinese hamster ovary) cells assessed as increase in frequencies of chromosomal aberrations bearing cells at 0.5 to 2 mM by Giemsa staining; assay type: toxicity, cell-based; details: 2000 µM
# CHO [26] = assay: Cytotoxicity against Cricetulus griseus CHO (Chinese hamster ovary) cells assessed as frequency of first generation of mitotic cells at 50 uM treated for 3 hr by BrdU assay (reference value: 10%); assay type: cell-based
# CHO [27] = assay: Genotoxicity in Cricetulus griseus CHO (Chinese hamster ovary) cells assessed as slight increase in frequencies of sister chromatid exchange bearing cells at 200 uM by fluorescence-plus-Giemsa technique; assay type: toxicity, cell-based
# CHO [28] = assay: Cytotoxicity against Cricetulus griseus CHO (Chinese hamster ovary) cells assessed as frequency of second generation of mitotic cells at 200 uM treated for 3 hr by BrdU assay (reference value: 90%); assay type: cell-based
Compound,Activity (CHO [1]) [%],Activity (CHO [2]) [%],Activity (CHO [3]) [%],Activity (CHO [4]) [%],Activity (CHO [5]) [%],Activity (CHO [6]) [%],Activity (CHO [7]) [%],Activity (CHO [8]),Activity (CHO [9]) [%],Activity (CHO [10]) [%],Activity (CHO [11]) [%],Activity (CHO [12]) [%],Activity (CHO [13]),Activity (CHO [14]) [%],Activity (CHO [15]) [%],Activity (CHO [16]) [%],Activity (CHO [17]) [%],Activity (CHO [18]) [%],Activity (CHO [19]) [%],Activity (CHO [20]),also measured
COCCc1cc(O)c(O)c(O)c1,5,96,0,0,79.1,0,15.6,Non-toxic,87.7,34,0,82,Non-toxic,0,102,87,94,0,0,Toxic,Activity (CHO [21]): 0%; Activity (CHO [22]): 18%; Activity (CHO [23]): 80.8%; Activity (CHO [24]): Active; Activity (CHO [25]): Toxic; Activity (CHO [26]): 6%; Activity (CHO [27]): Toxic; Activity (CHO [28]): 66%
"OCCc1cc(O)c(O)c(O)c1 [3,4,5-TRIHYDROXYPHENETHYL ALCOHOL]",5,92,0,0,96.5,0,4.3,Non-toxic,58.3,50,0,75,Non-toxic,0,100,79,92,0,0,Toxic,Activity (CHO [21]): 0%; Activity (CHO [22]): 25%; Activity (CHO [23]): 99.1%; Activity (CHO [24]): Active; Activity (CHO [25]): Toxic; Activity (CHO [26]): 8%; Activity (CHO [27]): Toxic; Activity (CHO [28]): 50%
